Measurements from PubChem BioAssay (NCI).
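Five compound concentrations were applied to cells in 96-well plates for 48 hours; endpoints were derived by simple linear interpolation of the resulting dose-response curve. GI50 marks 50% less growth. TGI marks complete inhibition of growth.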

Key:
Experiment in all cases: growth of human tumour cells (NCI), 48 h
HT29 colon = system: HT29 colon
HOP-92 NSCLC = system: HOP-92 NSCLC
CAKI-1 renal = system: CAKI-1 renal
NCI/ADR-RES ovarian = system: NCI/ADR-RES ovarian
HS 578T breast = system: HS 578T breast
SN12C renal = system: SN12C renal
SF-295 CNS = system: SF-295 CNS
MOLT-4 leukemia = system: MOLT-4 leukemia
OVCAR-5 ovarian = system: OVCAR-5 ovarian
MDA-MB-231 breast = system: MDA-MB-231 breast
CCRF-CEM leukemia = system: CCRF-CEM leukemia
HL-60(TB) leukemia = system: HL-60(TB) leukemia
LOX IMVI melanoma = system: LOX IMVI melanoma
T-47D breast = system: T-47D breast
SR leukemia = system: SR leukemia
BT-549 breast = system: BT-549 breast
U251 CNS = system: U251 CNS
SW-620 colon = system: SW-620 colon
OVCAR-8 ovarian = system: OVCAR-8 ovarian
SK-MEL-28 melanoma = system: SK-MEL-28 melanoma
M14 melanoma = system: M14 melanoma
MCF7 breast = system: MCF7 breast
SNB-19 CNS = system: SNB-19 CNS
K-562 leukemia = system: K-562 leukemia
COLO 205 colon = system: COLO 205 colon
NCI-H23 lung = system: NCI-H23 lung
OVCAR-3 ovarian = system: OVCAR-3 ovarian
SF-539 CNS = system: SF-539 CNS
HCT-15 colon = system: HCT-15 colon
NCI-H460 lung = system: NCI-H460 lung
SF-268 CNS = system: SF-268 CNS
NCI-H226 lung = system: NCI-H226 lung
A549 NSCLC = system: A549 NSCLC
UACC-62 melanoma = system: UACC-62 melanoma
MDA-MB-435 = system: MDA-MB-435
SK-MEL-2 melanoma = system: SK-MEL-2 melanoma
HOP-62 NSCLC = system: HOP-62 NSCLC
TK-10 renal = system: TK-10 renal
PC-3 prostate = system: PC-3 prostate
ACHN renal = system: ACHN renal
OVCAR-4 ovarian = system: OVCAR-4 ovarian
UO-31 renal = system: UO-31 renal
HCC-2998 colon = system: HCC-2998 colon
KM12 colon = system: KM12 colon
IGROV1 ovarian = system: IGROV1 ovarian
786-0 renal = system: 786-0 renal
SK-MEL-5 melanoma = system: SK-MEL-5 melanoma
EKVX NSCLC = system: EKVX NSCLC
MALME-3M melanoma = system: MALME-3M melanoma
SNB-75 CNS = system: SNB-75 CNS
RPMI-8226 leukemia = system: RPMI-8226 leukemia
HCT-116 colon = system: HCT-116 colon
SK-OV-3 ovarian = system: SK-OV-3 ovarian
UACC-257 melanoma = system: UACC-257 melanoma
DU-145 prostate = system: DU-145 prostate
RXF 393 renal = system: RXF 393 renal
NCI-H522 lung = system: NCI-H522 lung

Structure (SMILES): CC(=O)Nc1ccc(-n2cnc3cc(-c4ccc(OCCN5CCCCC5)cc4)ccc32)cc1
- GI50 (HT29 colon): 1120 nM
- TGI (HT29 colon): 3.92 µM
- GI50 (HOP-92 NSCLC): 4.51 µM
- TGI (HOP-92 NSCLC): 11.6 µM
- GI50 (CAKI-1 renal): 6.01 µM
- TGI (CAKI-1 renal): 11.7 µM
- GI50 (NCI/ADR-RES ovarian): 7.75 µM
- TGI (NCI/ADR-RES ovarian): 22.5 µM
- GI50 (HS 578T breast): 4.15 µM
- TGI (HS 578T breast): 10.8 µM
- GI50 (SN12C renal): 4.48 µM
- TGI (SN12C renal): 9.72 µM
- GI50 (SF-295 CNS): 5.5 µM
- TGI (SF-295 CNS): 10.6 µM
- GI50 (MOLT-4 leukemia): 5.71 µM
- TGI (MOLT-4 leukemia): 25 µM
- GI50 (OVCAR-5 ovarian): 6.22 µM
- TGI (OVCAR-5 ovarian): 14.6 µM
- GI50 (MDA-MB-231 breast): 5.33 µM
- TGI (MDA-MB-231 breast): 13 µM
- GI50 (CCRF-CEM leukemia): 6.57 µM
- TGI (CCRF-CEM leukemia): 23.9 µM
- GI50 (HL-60(TB) leukemia): 5.26 µM
- TGI (HL-60(TB) leukemia): 18.2 µM
- GI50 (LOX IMVI melanoma): 4.5 µM
- TGI (LOX IMVI melanoma): 8.88 µM
- GI50 (T-47D breast): 6.34 µM
- TGI (T-47D breast): 17.2 µM
- GI50 (SR leukemia): 895 nM
- TGI (SR leukemia): 3.74 µM
- GI50 (BT-549 breast): 4.88 µM
- TGI (BT-549 breast): 9.77 µM
- GI50 (U251 CNS): 4.16 µM
- TGI (U251 CNS): 9.14 µM
- GI50 (SW-620 colon): 973 nM
- TGI (SW-620 colon): 2790 nM
- GI50 (OVCAR-8 ovarian): 6.07 µM
- TGI (OVCAR-8 ovarian): 14.8 µM
- GI50 (SK-MEL-28 melanoma): 4.45 µM
- TGI (SK-MEL-28 melanoma): 9.06 µM
- GI50 (M14 melanoma): 5.34 µM
- TGI (M14 melanoma): 10.4 µM
- GI50 (MCF7 breast): 4.16 µM
- TGI (MCF7 breast): 13.6 µM
- GI50 (SNB-19 CNS): 8.53 µM
- TGI (SNB-19 CNS): 33.1 µM
- GI50 (K-562 leukemia): 944 nM
- TGI (K-562 leukemia): > 33.3 µM
- GI50 (COLO 205 colon): 5.2 µM
- TGI (COLO 205 colon): 10.7 µM
- GI50 (NCI-H23 lung): 5.07 µM
- TGI (NCI-H23 lung): 11.6 µM
- GI50 (OVCAR-3 ovarian): 5.27 µM
- TGI (OVCAR-3 ovarian): 10.4 µM
- GI50 (SF-539 CNS): 1640 nM
- TGI (SF-539 CNS): 6.47 µM
- GI50 (HCT-15 colon): 1540 nM
- TGI (HCT-15 colon): 6.38 µM
- GI50 (NCI-H460 lung): 1490 nM
- TGI (NCI-H460 lung): 5.3 µM
- GI50 (SF-268 CNS): 5.28 µM
- TGI (SF-268 CNS): 11.5 µM
- GI50 (NCI-H226 lung): 2920 nM
- TGI (NCI-H226 lung): 8.43 µM
- GI50 (A549 NSCLC): 1400 nM
- TGI (A549 NSCLC): 5.74 µM
- GI50 (UACC-62 melanoma): 6.79 µM
- TGI (UACC-62 melanoma): 13 µM
- GI50 (MDA-MB-435): 5.81 µM
- TGI (MDA-MB-435): 10.4 µM
- GI50 (SK-MEL-2 melanoma): 5.81 µM
- TGI (SK-MEL-2 melanoma): 11.5 µM
- GI50 (HOP-62 NSCLC): 5.08 µM
- TGI (HOP-62 NSCLC): 11.6 µM
- GI50 (TK-10 renal): 9.11 µM
- TGI (TK-10 renal): 15.9 µM
- GI50 (PC-3 prostate): 3.91 µM
- TGI (PC-3 prostate): 9.83 µM
- GI50 (ACHN renal): 3.61 µM
- TGI (ACHN renal): 11.4 µM
- GI50 (OVCAR-4 ovarian): 4.85 µM
- TGI (OVCAR-4 ovarian): 11.7 µM
- GI50 (UO-31 renal): 2330 nM
- TGI (UO-31 renal): 7.06 µM
- GI50 (HCC-2998 colon): 5.98 µM
- TGI (HCC-2998 colon): 14.6 µM
- GI50 (KM12 colon): 358 nM
- TGI (KM12 colon): 5.76 µM
- GI50 (IGROV1 ovarian): 4.93 µM
- TGI (IGROV1 ovarian): 11.5 µM
- GI50 (786-0 renal): 803 nM
- TGI (786-0 renal): 1700 nM
- GI50 (SK-MEL-5 melanoma): 5.22 µM
- TGI (SK-MEL-5 melanoma): 9.72 µM
- GI50 (EKVX NSCLC): 7.88 µM
- TGI (EKVX NSCLC): 28 µM
- GI50 (MALME-3M melanoma): 2460 nM
- TGI (MALME-3M melanoma): 7.59 µM
- GI50 (SNB-75 CNS): 4.11 µM
- TGI (SNB-75 CNS): 8.31 µM
- GI50 (RPMI-8226 leukemia): 5.16 µM
- TGI (RPMI-8226 leukemia): 12.7 µM
- GI50 (HCT-116 colon): 667 nM
- TGI (HCT-116 colon): 1300 nM
- GI50 (SK-OV-3 ovarian): 6.2 µM
- TGI (SK-OV-3 ovarian): 12.2 µM
- GI50 (UACC-257 melanoma): 5.9 µM
- TGI (UACC-257 melanoma): 12 µM
- GI50 (DU-145 prostate): 10.2 µM
- TGI (DU-145 prostate): > 33.3 µM
- GI50 (RXF 393 renal): 3.04 µM
- TGI (RXF 393 renal): 8.04 µM
- GI50 (NCI-H522 lung): 6.79 µM
- TGI (NCI-H522 lung): 13.7 µM
